Common to all, as to test: NCI anticancer screen, dose series, 48 h
Test [1] deals with 786-0 renal.
The subject of test [2] is HCT-116 colon.
In test [3] the test system is HCT-15 colon.
Test [4] concerns HL-60(TB) leukemia.
In test [5] the test system is NCI-H460 lung.
Test [6] concerns NCI-H522 lung.
For test [7], the system named is SN12C renal.
Test [8] concerns SNB-75 CNS.
The subject of test [9] is DU-145 prostate.
Test [10] concerns MCF7 breast.
Test [11] has as its system A498 renal.

Values joined by “and” are separate entries in the source; they are usually repeats but may differ in a detail not shown here. Equal entries are not always repeated.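 Results reflect a 48-hour exposure of cells in 96-well plates to compound at five concentrations. Abbreviation: GI50, concentration required for 50% inhibition of growth. TGI: concentration producing complete growth inhibition.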

`CC(=O)NNc1nc(C)c(C(/C=C/c2ccc(Cl)cc2)=N\N=C(N)N)s1`: the TGI in test [1], in test [2], in test [3], in test [4], in test [5] and in [6] was above 100 µM throughout. The TGI in [7] and in test [8] was above 100 µM in each case.
In the case of `Clc1cc2nc(C3CCCCO3)[nH]c2cc1Cl` (stereo not drawn), the TGI in test [1] is above 91.9 µM; in test [9], above 100 µM; in test [2], above 100 µM; in test [3] it was above 100 µM; in test [4], above 53.5 µM; in [10], 36.5 µM. The TGI in [5] is above 100 µM; in [6] it was 18.5 µM; in test [7], above 100 µM; in [8], 58.4 µM.
As to `CC[C@@]1(O)C(=O)OCc2c1cc1n(c2=O)Cc2cc3c(CN(C)C)c(O)ccc3nc2-1`, the GI50 is 0.0205 µM and 0.0299 µM in test [11]; 0.0681 µM in [2]; 0.304 µM and 0.0813 µM and 0.67 µM in test [3]; 0.0103 µM and 0.00542 µM in [4]; below 0.01 µM in test [10]; < 0.01 µM and 0.00456 µM and 0.021 µM in [5]. Also, the GI50 was < 0.025 µM and 0.0206 µM and 0.0416 µM in [6]; < 0.01 µM and 0.00456 µM and 0.0248 µM in [7]. Moreover, the TGI in test [2] is 18.9 µM and 11.7 µM; in test [5] it was 0.499 µM and 1.58 µM and 0.222 µM.
In the case of `C/C(=N\Nc1nc2ccccc2o1)c1ncccn1`, the TGI in test [1] was 12.1 µM; in test [11], 15.8 µM; in [9], above 50.8 µM; in test [2] it was 17 µM; in test [3], 20.3 µM; in test [5], 14 µM. The TGI was 22.3 µM in [6] and 15.2 µM in test [7].
For `Cc1n[nH]c(=O)n1Nc1ccccc1`, the TGI in test [1], in test [9], in [2], in [3], in test [4] and in test [10] was above 100 µM each time. The TGI in test [5], in test [6], in test [7] and in test [8] was above 100 µM throughout.
As to `O=c1sc(Nc2ccc3ccccc3c2Cl)nc2ccccc12`, the TGI in test [1], in test [9], in [2], in test [3], in test [4] and in [10] was above 100 µM throughout. Besides, the TGI in [5], in [6], in [7] and in [8] was above 100 µM each time.
In the case of `O=C1CNc2cc(N3CCOCC3)ccc2N1`, the TGI in test [1], in test [11], in test [9], in test [2], in test [3] and in [4] was above 100 µM each time. The TGI in [5], in test [6] and in test [8] was above 100 µM throughout.
As for `O=C(CSc1nnc(Cc2ccccc2)o1)Nc1ccc(Cl)cc1[N+](=O)[O-]`, the TGI in [1] worked out at 31 µM; in test [2], 27.7 µM; in test [3] it was 32.2 µM; in test [4], 61.5 µM; in [6] it was 9.26 µM; in test [7], 31.4 µM. This molecule also returned a TGI in test [8] of 39.5 µM.
As for `O=C1C[C@@H]2[C@@H](CCC23CCCC3)N1`, the TGI in test [1], in [11], in test [2], in test [3], in [4] and in test [5] was above 100 µM in each case. The TGI in test [6], in test [7] and in test [8] was above 100 µM in each case.
For the molecule `O=C(NC(=O)c1ccccc1)OC(c1ccccc1)C1CO1` (stereo not drawn), the TGI in test [1], in test [9], in test [2], in [3], in [4] and in [10] was above 100 µM in each case. The TGI in test [5], in [6], in [7] and in test [8] was above 100 µM throughout.
For `O=C1N=CN=C2C=CC(Cl)=C(I)C12` (stereo not drawn), the TGI in test [1], in test [11], in [2], in test [4], in test [5] and in test [7] was above 100 µM each time.
For the molecule `CC(C)COC(=O)c1ccc(N=Cc2ccc(C=Nc3ccc(C(=O)OCC(C)C)cc3)cc2)cc1`, the TGI in test [1], in test [3], in test [4], in test [5], in test [6] and in [7] was above 100 µM throughout. In addition, the TGI in test [8] is above 100 µM.
Regarding `OCC1C2CCC3(OCCO3)C12` (stereo not drawn), the TGI in [1], in test [9], in [2], in test [3], in [10] and in test [5] was above 100 µM in each case. Moreover, the TGI in [6], in [7] and in [8] was above 100 µM throughout.
For the molecule `Cc1nn(C(=O)c2ccc(Cl)cc2)c2c1C(c1ccccc1O)SC(N)=N2` (stereo not drawn), the TGI in test [1], in test [9], in test [2], in test [3], in test [4] and in test [10] was above 10 µM each time. The TGI in test [5], in [6], in [7] and in test [8] was above 10 µM throughout.
As to `O=C(O)CCNc1ncc2c(n1)-c1ccccc1OC2`, the TGI in [1], in test [9], in test [2], in test [3], in [4] and in test [10] was above 100 µM in each case. Besides, the TGI in test [5], in [6], in test [7] and in test [8] was above 100 µM each time.

Source of the values: PubChem BioAssay (NCI).
